# Measured values taken from the NIST ThermoML archive (doi:10.1016/j.fluid.2018.09.023).
# Numbers after ± are expanded uncertainties.
# Assay: not given
# Details: 298.15 K; 101.33 kPa; Liquid; Vibrating tube method
row,Compound,mass density [kg/m3]
1,CCCOC(=O)OCCC [dipropyl carbonate],938.35 ± 0.13
2,COC(=O)OC [dimethyl carbonate],1063.26 ± 0.08

# Other lines, results leading:
row,mass density [kg/m3],Compound
1,969.18 ± 0.07,CCOC(=O)OCC [diethyl carbonate]
2,800.06 ± 0.12,CCCO [propan-1-ol]
3,780.79 ± 0.13,CC(C)O [propan-2-ol]
4,785.02 ± 0.13,CCO [ethanol]

# Assay: Solid-liquid equilibrium temperature
# Details: 101 kPa, visual observation
row,Compound,Solid-liquid equilibrium temperature [K]
1,O=C(Oc1ccccc1)Oc1ccccc1 [diphenyl carbonate],352.7 ± 4
2,COC(=O)OC [dimethyl carbonate],278.11 ± 4
